Data as given in patent EP2754453A1, “Conjugate of a cationic antimicrobial peptide and of a fatty acid for use as an anti-cancer agent” (UNIVERSITY COLLEGE DUBLIN, priority 2013, dated 2014).
Read-outs that look alike come from different tables or passages of the source.

Key:
[1] = tested on: HeLa cells; assay: MTT cell viability assay (anti-proliferation activity); assay type: cell-based, human
Procedure: (§1) The colorectal cancer (HT-29), lung carcinoma (A549) and T-cell leukemia (Jurkat) cell lines were maintained as monolayer cultures in RPMI-1640 supplemented with 100 µg/ml streptomycin, 100 U/ml penicillin and 10% (v/v) foetal bovine serum (FBS) (all from Sigma, Ireland). Human glioma (SNB-19), human pancreatic carcinoma (MiaPaCa) and breast carcinoma (MDA-MB-231) cells were obtained from the American Type Culture Collection (ATCC) and maintained in Dulbecco's Modified Eagle's Medium (DMEM) supplemented with 100 µg/ml streptomycin, 100 U/ml penicillin, 2 mM L-glutamine, and 10% (v/v) FBS. The melanoma cell line (WM793) was originally isolated from a superficial spreading melanoma and maintained in DMEM, supplemented with 10% (v/v) FBS, 50 µg/ml gentamicin and 4 µg/ml insulin (Sigma, Ireland). HeLa cells were obtained from the ATCC and maintained in DMEM supplemented with 100 µg/ml streptomycin, 100 U/ml penicillin, 2 mM L-glutamine, 0.1 mM non-essential amino acids (NEAA, Sigma), and 10% (v/v) FBS. Human umbilical vein endothelial cells (HUVEC) cells were obtained from Cambrex and maintained in an endothelial cell growth medium (Lonza, Dublin Ireland). Human Dermal fibroblast (HDF) cells were obtained from the European Collection of Cell Culture (ECACC) and were maintained in DMEM supplemented with 100 µg/ml streptomycin, 100 U/ml penicillin, 2 mM L-glutamine, and 10% (v/v) FBS. All cells were grown in humidified atmosphere of 95% air and 5% CO2 at 37°C.
(§2) Reduction of MTT [(3-(4,5-dimethylthiazol-2-yl)-2,5-diphenyltetrazolium bromide] by cells was assessed colorimetrically as previously described. Assays were carried out after 48 h of cell incubation (72 h for combinational studies) in the media containing test compounds at concentrations ranging from 200 µM to 0.2 µM depending upon compounds being tested.

[2] = tested on: T-cell leukemia (Jurkat); assay: as above; assay type: cell-based, human; details: 48 h incubation, read-out: concentration at which 50% cell growth inhibition occurs (IC50)
Procedure: as §1, §2

[3] = tested on: Human glioma (SNB-19); assay: as above; assay type: cell-based; details: SNB-19, 48 h incubation; read-out: concentration at which 50% cell growth inhibition occurs (IC50)
Procedure: as §1, §2

[4] = tested on: human pancreatic carcinoma (MiaPaCa); assay: as above; assay type: cell-based; details: 48 h incubation, read-out: concentration at which 50% cell growth inhibition occurs (IC50)
Procedure: as §1, §2

[5] = tested on: MDA-MB-231; details: cited from earlier work
[6] = tested on: Jurkat; details: cited from earlier work
[7] = tested on: breast carcinoma (MDA-MB-231) cells; assay: MTT cell viability assay (anti-proliferation activity); assay type: cell-based, human; details: 48 h incubation, read-out: concentration at which 50% cell growth inhibition occurs (IC50)
Procedure: as §1, §2

[8] = tested on: colorectal cancer (HT-29); assay: as above; assay type: cell-based, human; details: HT-29, 48 h incubation; read-out: concentration at which 50% cell growth inhibition occurs (IC50)
Procedure: as §1, §2

[9] = tested on: melanoma cell line (WM793); assay: as above; assay type: cell-based, human; details: WM793, 48 h incubation; read-out: concentration at which 50% cell growth inhibition occurs (IC50)
Procedure: as §1, §2

[10] = tested on: Human umbilical vein endothelial cells (HUVEC); assay: as above; assay type: cell-based; details: 48 h incubation, read-out: concentration at which 50% cell growth inhibition occurs (IC50)
Procedure: as §1, §2

[11] = tested on: HeLa; assay: Western blot analysis of apoptosis markers; assay type: cell-based, human; details: Fig. 5A
Procedure: (§3) Cells were lyzed and protein levels determined using the bicinchoninic acid method (Pierce, Rockford, IL). Protein samples were separated by SDS-PAGE under reducing conditions. Resolved proteins were transferred to methanol-activated polyvinylidenedifluoride (PVDF) membrane (Millipore, Bedford, MA, USA and blocked in 5% (w/v) bovine serum albumin for 1 h at room temperature. Primary antibody was applied to membranes overnight at 4°C (anti-cleaved Caspase 3, 8, 9 and poly ADP-ribose polymerase (PARP), (1:1000 dilution; Cell Signaling Technology, Danvers, USA). Chemiluminescent signal was detected using the Fluorchem FC2 Imaging System (Alpha Innotech, Switzerland). Membranes were stripped and reprobed with anti-β-actin antibodies (1:1000 dilution; Santa-Cruz Biotechnology, Santa Cruz, USA) so as to provide loading control.

[12] = tested on: MiaPaCa; assay: Western blot analysis of apoptosis markers; assay type: cell-based, human; details: Fig. 5B
Procedure: as §3

[13] = tested on: lung carcinoma (A549); assay: MTT cell viability assay (anti-proliferation activity); assay type: cell-based, human; details: A549, 48 h incubation; read-out: concentration at which 50% cell growth inhibition occurs (IC50)
Procedure: as §1, §2

[14] = tested on: Human Dermal fibroblast (HDF) cells; assay: as above; assay type: cell-based; details: 48 h incubation, read-out: concentration at which 50% cell growth inhibition occurs (IC50)
Procedure: as §1, §2

[15] = HeLa, 48 h incubation, read-out: concentration at which 50% cell growth inhibition occurs (IC50)

C10-kwklfkklpkflhlakkf [C10DP18L]
IC50 [1, 15]: 3 ± 0.1 µM | IC50 [2]: 3.8 ± 0.4 µM | IC50 [3]: 4.3 ± 0.9 µM | IC50 [4]: 5 ± 1.5 µM

KWKLFKKIPKFLHLAKKF [P18]
cytotoxic activity [5]: displays cytotoxic activity | cytotoxic activity [6]: displays cytotoxic activity

Kwklfkkipkflhlakkf (SEQ ID NO: 2) [DP18]
IC50 [1, 15]: 18 ± 0.4 µM | IC50 [7]: 18.6 ± 0.8 µM | IC50 [8]: 17.5 ± 0.5 µM | IC50 [9]: 22.8 ± 0.8 µM | IC50 [3]: 18.6 ± 1.5 µM | IC50 [10]: 100 ± 9 µM | IC50 [4]: 18.9 ± 1.5 µM

Kwklfkklpkflhlakkf (SEQ ID NO: 1) [DP18L]
IC50 [1, 15]: 12.7 ± 1.2 µM | IC50 [2]: 4.2 ± 0.6 µM | IC50 [7]: 13.4 ± 2.4 µM | IC50 [8]: 18.3 ± 0.9 µM | IC50 [9]: 18.7 ± 3 µM | IC50 [3]: 27.3 ± 1.8 µM | IC50 [10]: 140 ± 18 µM | IC50 [4]: 13.9 ± 0.6 µM | Caspase 8 [11]: not detected at significant levels | apoptotic cell death (activation of caspase 3, 9 and the caspase substrate PARP) [11]: induces apoptotic cell death | Caspase 8 [12]: not detected at significant levels | apoptotic cell death (activation of caspase 3, 9 and the caspase substrate PARP) [12]: induces apoptotic cell death

R10-kwklfkklpkflhlakkf [R10DP18L]
IC50 ([1]; HeLa cells, concentration used in uptake study of biotinylated peptides (Fig. 3A), read-out: approximately the IC50 value): ~2.4 µM | IC50 [1, 15]: 2.8 ± 0.3 µM | IC50 [2]: 3 ± 0.5 µM | IC50 [7]: 3.1 ± 0.8 µM | IC50 [13]: 2.5 ± 0.7 µM | IC50 [14]: 7.9 ± 0.4 µM | IC50 [10]: 9.2 ± 0.8 µM
